Experiment [1] addresses T1, human recombinant serotonin (5-Hydroxytryptamine) 5-HT7 receptor (Homo sapiens, UniProt P34969).
T1 construct: expressed in transfected cells; host or cells: CHO
In words: Serotonin 5-HT7 radioligand binding ([3H]LSD). The conditions noted are these: 0.1 μM compound; read-out: Percentage inhibition of ligand binding, Serotonin 5-HT7. The method, then: To evaluate in radioligand binding assays the activity of compounds of the invention, human recombinant serotonin (5-Hydroxytryptamine) 5-HT7 receptor expressed in Chinese hamster ovary (CHO) cells (Roth, B. et al, J. Pharmacol. Exp. Ther. 268:1403, 1994; Shen, Y. et al, J. Biol. Chem. 268:18200, 1993) in a modified Tris-HCl buffer (50 mM Tris-HCl, pH 7.4, 10 mM MgCl2, 0.5 mM EDTA) was used. Compounds of invention were incubated with 5.5 nM [^3H] Lysergic acid diethylamide (LSD) for 2 h at 25° C. Non-specific binding was estimated in the presence of 10 μM Serotonin (5-HT). Receptor proteins were filtered and washed, the filters were then counted to determine [^3H]LSD specifically bound. Compounds were screened at 1 μM or lower, using 1% DMSO as vehicle. Biochemical assay results are presented as the percent inhibition of specific binding in Table 5.

Experiment [2] has as its target T2, human recombinant serotonin (5-Hydroxytryptamine) 5-HT2C receptor (Homo sapiens, UniProt P28335).
T2 construct: expressed in transfected cells; host or cells: CHO-K1
T2 sequence (P28335 33-458): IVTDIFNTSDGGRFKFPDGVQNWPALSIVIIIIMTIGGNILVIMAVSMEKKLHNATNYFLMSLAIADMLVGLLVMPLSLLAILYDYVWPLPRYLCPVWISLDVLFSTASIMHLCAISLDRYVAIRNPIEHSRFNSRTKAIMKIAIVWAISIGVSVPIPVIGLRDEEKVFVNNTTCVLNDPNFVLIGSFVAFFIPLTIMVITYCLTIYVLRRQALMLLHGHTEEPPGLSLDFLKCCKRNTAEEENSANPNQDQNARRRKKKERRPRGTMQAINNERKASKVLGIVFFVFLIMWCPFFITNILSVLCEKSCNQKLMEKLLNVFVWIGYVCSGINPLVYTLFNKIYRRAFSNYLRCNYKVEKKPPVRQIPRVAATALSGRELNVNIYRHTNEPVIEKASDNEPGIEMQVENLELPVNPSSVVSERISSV
Briefly: Serotonin 5-HT2C radioligand binding ([3H]Mesulergine). Particulars: 0.1 μM compound; for inhibition at 0.1 µM: read-out: Percentage inhibition of ligand binding, Serotonin 5-HT2C; for Percentage inhibition of ligand binding, Serotonin 5-HT2C: 0.1 µM. The method, then: To evaluate in radioligand binding assays the activity of compounds of the invention, human recombinant serotonin (5-Hydroxytryptamine) 5-HT2C receptor expressed in Chinese hamster ovary (CHO) K1 cells (Wolf, W. et al, J. Neurochem. 69:1449, 1997) in a modified Tris-HCl buffer (50 mM Tris-HCl, pH 7.4, 0.1% Ascorbic Acid, 10 μM Pargyline) was used. Compounds of the invention were incubated with 1 nM [^3H]Mesulergine for 60 min at 25° C. Non-specific binding was estimated in the presence of 1 μM Mianserin. Receptor proteins were filtered and washed, the filters were then counted to determine [^3H]Mesulergine specifically bound. Compounds were screened at 1 μM or lower, using 1% DMSO as vehicle. Biochemical assay results are presented as the percent inhibition of specific binding in Table 5.

For experiment [3], the target named is T3, human recombinant adrenergic α2A receptor (Homo sapiens, UniProt P08913).
T3 construct: expressed in transfected cells; host or cells: insect Sf9 cells
T3 sequence (P08913 1-465): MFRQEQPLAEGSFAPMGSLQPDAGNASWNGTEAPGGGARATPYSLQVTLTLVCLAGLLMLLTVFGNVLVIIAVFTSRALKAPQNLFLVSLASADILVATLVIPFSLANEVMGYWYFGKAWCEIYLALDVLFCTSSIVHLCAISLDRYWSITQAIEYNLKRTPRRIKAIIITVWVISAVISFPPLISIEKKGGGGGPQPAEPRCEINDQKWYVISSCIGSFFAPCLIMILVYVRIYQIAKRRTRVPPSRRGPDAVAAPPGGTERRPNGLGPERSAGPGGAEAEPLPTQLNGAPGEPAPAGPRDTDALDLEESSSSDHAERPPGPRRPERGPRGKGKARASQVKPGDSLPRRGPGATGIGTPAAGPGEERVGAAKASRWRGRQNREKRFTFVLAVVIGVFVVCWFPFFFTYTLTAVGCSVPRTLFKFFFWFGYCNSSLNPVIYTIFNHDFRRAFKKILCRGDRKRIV
In words: Adrenergic α2A radioligand binding ([3H]MK-912). Particulars: 0.1 μM compound; for inhibition at 0.1 µM: read-out: Percentage inhibition of ligand binding, Adrenergic α2A; for Percentage inhibition of ligand binding, Adrenergic α2A: 0.1 µM. The method, then: To evaluate in radioligand binding assays the activity of compounds of the invention, human recombinant adrenergic α2A receptor expressed in insect Sf9 cells (Uhlen, S. et al, J. Pharmacol. Exp. Ther. 271:1558, 1994) in a modified Tris-HCl buffer (50 mM Tris-HCl, pH 7.4, 12.5 mM MgCl2, 2 mM EDTA) was used. Compounds of invention were incubated with 1 nM [^3H]MK-912 for 60 min at 25° C. MK-912 is (2S-trans)-1,3,4,5′,6,6′,7,12b-octahydro-1′,3′-dimethyl-spiro[2H-benzofuro[2,3-a]quinolizine-2,4′(1′H)-pyrimidin]-2′(3′H)-one hydrochloride Non-specific binding was estimated in the presence of 10 μM WB-4101 (2-(2,6-Dimethoxyphenoxyethyl)aminomethyl-1,4-benzodioxane hydrochloride). Receptor proteins were filtered and washed, the filters were then counted to determine [^3H]MK-912 specifically bound. Compounds were screened at 1 μM or lower, using 1% DMSO as vehicle. Biochemical assay results are presented as the percent inhibition of specific binding in Table 3.

The results in this text go back to patent publication US9035056B2, “Pyrido[4,3-b]indole and pyrido[3,4-b]indole derivatives and methods of use” (Medivation Technologies, Inc., priority 2011, dated 2015).

As usually defined, the inhibition is the change of the read-out against control, counted positive when it falls.

T1 sequence (P34969 whole entry): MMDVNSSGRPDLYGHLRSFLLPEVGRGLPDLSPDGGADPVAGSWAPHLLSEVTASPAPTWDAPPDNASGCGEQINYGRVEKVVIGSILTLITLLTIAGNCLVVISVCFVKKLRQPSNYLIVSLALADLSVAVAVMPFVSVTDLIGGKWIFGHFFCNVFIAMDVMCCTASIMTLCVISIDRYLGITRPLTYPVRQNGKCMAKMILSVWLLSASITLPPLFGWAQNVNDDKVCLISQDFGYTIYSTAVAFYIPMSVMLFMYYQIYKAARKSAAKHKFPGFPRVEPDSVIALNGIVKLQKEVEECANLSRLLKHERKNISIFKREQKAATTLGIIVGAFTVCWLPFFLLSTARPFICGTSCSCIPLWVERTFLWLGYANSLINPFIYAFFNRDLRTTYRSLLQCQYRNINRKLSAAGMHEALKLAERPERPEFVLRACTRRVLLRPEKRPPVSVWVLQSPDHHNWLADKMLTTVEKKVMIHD

Regarding `Cc1ccc2c(c1)c1c(n2/C=C2\CCCc3ccccc32)CCN(C)C1` [i-3], the inhibition at 0.1 µM in experiment [1] amounted to 96%; in experiment [2], 100%; in experiment [3] it was 92%.

Consider `Cc1ccc2c(c1)c1c(n2CC2(O)CCCc3cnccc32)CCN(C)C1` (single isomer, unassigned) [ii-74b], for which the “Percentage inhibition of ligand binding, Serotonin 5-HT2C” value in experiment [2] came out at 53%. For the same compound, in experiment [3], the “Percentage inhibition of ligand binding, Adrenergic α2A” value (“Percentage inhibition … Adrenergic α2A” below) was 12%.

Consider `Cc1ccc2c(c1)c1c(n2CC2(O)CCCc3ccncc32)CCN(C)C1` (single isomer, unassigned) [ii-113a], for which the inhibition at 0.1 µM in experiment [2] was found to be 37%; in experiment [3], 9%.

Regarding `Cc1ccc2c(c1)c1c(n2CC2(O)CCCc3ncccc32)CCN(C)C1` (single isomer, unassigned) [ii-112b], the “Percentage inhibition of ligand binding, Serotonin 5-HT2C” value in experiment [2] is on record as 37%. The “Percentage inhibition … Adrenergic α2A” value in experiment [3] is recorded as 4%.

Regarding `Cc1ccc2c(c1)c1c(n2/C=C2/CCCc3ccccc32)CCN(C)C1` [i-2], the values for the inhibition at 0.1 µM in experiment [1], in experiment [2] and in experiment [3] were 97%, 100% and 98%, respectively.

As to `Cc1ccc2c(c1)c1c(n2CC2(O)CCCc3ncccc32)CCN(C)C1` (single isomer, unassigned) [ii-112a], the inhibition at 0.1 µM in experiment [2] is 42%. In experiment [3], the “Percentage inhibition … Adrenergic α2A” value is recorded as 15%.

On to `Cc1ccc2c(c1)c1c(n2CC2(O)CCCc3cnccc32)CCN(C)C1` (single isomer, unassigned) [ii-74a], for which the “Percentage inhibition of ligand binding, Serotonin 5-HT2C” value in experiment [2] is on record as 28%. For the same compound, the inhibition at 0.1 µM in experiment [3] was 14%.
